As usually defined, the IC50 is the point on the concentration scale where inhibition reaches its midpoint.

The assay has as its system human platelets. Put plainly: inhibition of aggregation of human platelets ex vivo. The format is cell-based. Conditions: Platelet, read-out: IC50, inhibit aggregation of human platelets ex vivo.

For `COc1ccc(-c2cccc(Oc3ccc([N+](=O)[O-])cc3S(=O)(=O)NC(=O)NC(C)(C)C)c2)cc1` [TP20], the IC50 was in the range of 1 to 10 nM.
As for `CC(C)(C)NC(=O)NS(=O)(=O)c1cc(C#N)ccc1Oc1cccc(-c2ccc(OC(F)(F)F)cc2)c1` [NTP43], the figure is 1 to 10 nM.

The values above are taken from patent US20250302848A1, “DRUG-IN-CAPSULE FORMULATIONS OF THROMBOXANE RECEPTOR ANTAGONISTS” (ATXA Therapeutics, Ltd, priority 2024, published 2025).
